Converted amounts (≈) assume the structure as drawn.
Tests used:
Type in all cases: functional
Klebsiella pneumoniae = test: Antimicrobial activity against Klebsiella pneumoniae ATCC 10031-2 by threefold dilution agar inclusion method
Staphylococcus aureus = test: Antimicrobial activity against Staphylococcus aureus ATCC 6538P by threefold dilution agar inclusion method
Escherichia coli = test: Antimicrobial activity against Escherichia coli ATCC 25922-1 by threefold dilution agar inclusion method
Streptococcus pyogenes = test: Antimicrobial activity against Streptococcus pyogenes ATCC 8668 by threefold dilution agar inclusion method
Proteus vulgaris = test: Antimicrobial activity against Proteus vulgaris ATCC 9484 by threefold dilution agar inclusion method

SMILES	MIC (Klebsiella pneumoniae) [µg/mL]	MIC (Staphylococcus aureus) [µg/mL]	MIC (Escherichia coli) [µg/mL]	MIC (Streptococcus pyogenes) [µg/mL]	MIC (Proteus vulgaris) [µg/mL]
CC(=O)OCC1=C(/C=N/O)N2C(=O)[C@@H](NC(=O)Cc3cccs3)[C@H]2SC1	> 100	> 100	> 100	> 100	> 100
CC(=O)OCC1=C(C=O)N2C(=O)[C@@H](NC(=O)Cc3cccs3)[C@H]2SC1	> 100	30 (≈ 78.9 µM)	> 100	30 (≈ 78.9 µM)	> 100
CC(=O)OCC1=C(/C=N/OCC(=O)O)N2C(=O)[C@@H](NC(=O)Cc3cccs3)[C@H]2SC1	> 100	> 100	> 100	> 100	> 100

Continued, values first:

MIC (Klebsiella pneumoniae) [µg/mL]	MIC (Staphylococcus aureus) [µg/mL]	MIC (Escherichia coli) [µg/mL]	MIC (Streptococcus pyogenes) [µg/mL]	MIC (Proteus vulgaris) [µg/mL]	SMILES
> 100	> 100	> 100	> 100	> 100	CC(=O)OCC1=C(/C=C/C(=O)[O-])N2C(=O)[C@@H](NC(=O)Cc3cccs3)[C@H]2SC1.[Na+]
> 100	> 100	> 100	> 100	> 100	CC(=O)OCC1=C(C2OCCO2)N2C(=O)[C@@H](NC(=O)Cc3cccs3)[C@H]2SC1
> 100	> 100	> 100	> 100	> 100	CC(=O)OCC1=C(/C=N/NC(N)=O)N2C(=O)[C@@H](NC(=O)Cc3cccs3)[C@H]2SC1
> 100	> 100	> 100	> 100	> 100	CO/N=C/C1=C(COC(C)=O)CS[C@@H]2[C@H](NC(=O)Cc3cccs3)C(=O)N12
1 (≈ 2.52 µM)	0.3 (≈ 0.757 µM)	30 (≈ 75.7 µM)	< 0.1	> 100	CC(=O)OCC1=C(C(=O)O)N2C(=O)[C@@H](NC(=O)Cc3cccs3)[C@H]2SC1 [CEPHALOTHIN]
